Source: patent US20130274174A1, “THERAPEUTIC COMBINATION OF DAPTOMYCIN AND PROTEIN SYNTHESIS INHIBITOR ANTIBIOTIC, AND METHODS OF USE” (priority 2011, published 2013)
In brackets after ≈: the same amount, converted by molar mass. Entries after “also recorded” stand apart in the source; their conditions may differ. Where two headings read alike, the source gives them in different places.

Columns and labels:
[1] = test system: Staphylococcus aureus 100 (ATCC 29213); experiment: FIC checkerboard broth microdilution, control combinations; type: cell-based; settings: ATCC29213, agent alone, repeated determinations by date
Experimental: Test articles of stock solutions of daptomycin (Cubist, lot MCB2007) and TR-700 were prepared at 40 times the final target concentration in DMSO:water (1:1). DMSO was added first, the solutions were allowed to stand for 60 minutes and then the water was added. […] The final DMSO concentration was 2.5%. The final drug concentrations in the FIC assay plates were set to bracket the MIC value of each test article for each test organism, unless the strain was totally resistant to the test article.
The test organisms were originally received from clinical sources, or from the American Type Culture Collection. […] Aliquots were then frozen at −80° C.
The broth was prepared at 1.05× normal weight/volume to offset the 5% volume of the drugs in the final test plates.
Antimicrob. Agents Chemother.
These plates were used to prepare the drug “mother plates” which provided the serial drug dilutions for the drug combination plates.
The “daughter plates” were loaded with 180 μL of test medium using the Multidrop 384. Then, the Multimek 96 was used to transfer 10 μL of drug solution from each well of the drug combination mother plate to each corresponding well of the daughter plate in a single step.

S. aureus [2] = settings: co-selection with a subinhibitory concentration; Berti et al. 2012; cited from earlier work
S. aureus MW2 (NRS123) = experiment: microbe, parasite or virus in culture; type: cell-based, Staphylococcus aureus; settings: for MIC: Staphylococcus aureus
Experimental: S. aureus strains MW2 (NARSA collection clinical MRSA isolate, NRS123) and ATCC 33591 (MRSA strain from the American Type Culture Collection) were cultured on Mueller-Hinton II cation adjusted (MHA) medium in 90×90 mm square petri dishes. MHA containing ¼ of the MIC value of TR-700, TR-705, LZD, TIA, CLI, TET, or VAN, TMP/SMX throughout the plate and a continuous linear gradient of DAP across the plate was used to passage MW2. ATCC 33591 was passaged with ¼ of the MIC of a subset of these drugs (TR-700, TMP/SMX, and VAN). A DAP-only control passage group was included for both strains. DAP gradients were created by pouring two layers of media as previously described (Bryson, V., et al. 1952. Microbial selection. Science 116:45-51; Locke, J. B., et al., 2009. Antimicrob. Agents Chemother. 53:5265-5274). Following each passage the leading edge of growth (i.e., most resistant cells) was resuspended in phosphate buffered saline (PBS) to an absorbance of 0.30 OD600 and a 100 μl aliquot containing ˜3.0×10^7 CFU (colony-forming units) was spread on to the proceeding passage plate. The starting maximal DAP concentration was 2 μg/ml and was increased in two-fold increments when the leading edge of growth surpassed the half way point on the plate. A glycerol stock was made from the total cell population for each culture condition for each passage. Thirty serial passages were completed for each treatment group.

S. aureus [3] = settings: Locke et al. 2009; cited from earlier work

Compound: O=C(O)[C@H]1/C(=C/CO)O[C@@H]2CC(=O)N21 [Clavulanate]
- MIC [1]: 16 µg/mL

Compound: CC(=O)NC[C@H]1CN(c2ccc(N3CCOCC3)c(F)c2)C(=O)O1 [LZD, linezolid]
- effect on preventing the emergence of DAP^ns S. aureus (S. aureus [2]): did not have any effect on preventing the emergence of DAP^ns S. aureus
- MIC (S. aureus MW2 (NRS123); NRS123, passage 0, NRS123 WT): 2 µg/mL (≈ 5.93 µM)
- MIC (S. aureus MW2 (NRS123); NRS123, passage 5, selection group DAP): 2 µg/mL (≈ 5.93 µM)
- MIC (S. aureus MW2 (NRS123); NRS123, passage 5, selection group DAP + CLI): 2 µg/mL
- MIC (S. aureus MW2 (NRS123); NRS123, passage 5, selection group DAP + LZD): 2 µg/mL
- MIC (S. aureus MW2 (NRS123); NRS123, passage 5, selection group DAP + TET): 2 µg/mL
- MIC (S. aureus MW2 (NRS123); NRS123, passage 5, selection group DAP + TIA): 2 µg/mL
- MIC (S. aureus MW2 (NRS123); NRS123, passage 5, selection group DAP + TMP/SMX): 1 µg/mL
- MIC (S. aureus MW2 (NRS123); NRS123, passage 5, selection group DAP + TR-700): 2 µg/mL
- MIC (S. aureus MW2 (NRS123); NRS123, passage 5, selection group DAP + TR-705): 2 µg/mL
- MIC (S. aureus MW2 (NRS123); NRS123, passage 5, selection group DAP + VAN): 1 µg/mL
- MIC (S. aureus MW2 (NRS123); NRS123, passage 10, selection group DAP): 2 µg/mL (≈ 5.93 µM)
- MIC (S. aureus MW2 (NRS123); NRS123, passage 10, selection group DAP + CLI): 2 µg/mL
- MIC (S. aureus MW2 (NRS123); NRS123, passage 10, selection group DAP + LZD): 2 µg/mL
- MIC (S. aureus MW2 (NRS123); NRS123, passage 10, selection group DAP + TET): 2 µg/mL
- MIC (S. aureus MW2 (NRS123); NRS123, passage 10, selection group DAP + TIA): 2 µg/mL
- MIC (S. aureus MW2 (NRS123); NRS123, passage 10, selection group DAP + TMP/SMX): 2 µg/mL
- MIC (S. aureus MW2 (NRS123); NRS123, passage 10, selection group DAP + TR-700): 2 µg/mL
- MIC (S. aureus MW2 (NRS123); NRS123, passage 10, selection group DAP + TR-705): 2 µg/mL
- MIC (S. aureus MW2 (NRS123); NRS123, passage 10, selection group DAP + VAN): 1 µg/mL
- MIC (S. aureus MW2 (NRS123); NRS123, passage 15, selection group DAP): 1 µg/mL (≈ 2.96 µM)
- MIC (S. aureus MW2 (NRS123); NRS123, passage 15, selection group DAP + CLI): 2 µg/mL
- MIC (S. aureus MW2 (NRS123); NRS123, passage 15, selection group DAP + LZD): 2 µg/mL
- MIC (S. aureus MW2 (NRS123); NRS123, passage 15, selection group DAP + TET): 1 µg/mL
- MIC (S. aureus MW2 (NRS123); NRS123, passage 15, selection group DAP + TIA): 2 µg/mL
- MIC (S. aureus MW2 (NRS123); NRS123, passage 15, selection group DAP + TMP/SMX): 2 µg/mL
- MIC (S. aureus MW2 (NRS123); NRS123, passage 15, selection group DAP + TR-700): 2 µg/mL
- MIC (S. aureus MW2 (NRS123); NRS123, passage 15, selection group DAP + TR-705): 2 µg/mL
- MIC (S. aureus MW2 (NRS123); NRS123, passage 15, selection group DAP + VAN): 1 µg/mL
- MIC (S. aureus MW2 (NRS123); NRS123, passage 20, selection group DAP): 2 µg/mL (≈ 5.93 µM)
- MIC (S. aureus MW2 (NRS123); NRS123, passage 20, selection group DAP + CLI): 2 µg/mL
- MIC (S. aureus MW2 (NRS123); NRS123, passage 20, selection group DAP + LZD): 2 µg/mL
- MIC (S. aureus MW2 (NRS123); NRS123, passage 20, selection group DAP + TET): 1 µg/mL
- MIC (S. aureus MW2 (NRS123); NRS123, passage 20, selection group DAP + TIA): 2 µg/mL
- MIC (S. aureus MW2 (NRS123); NRS123, passage 20, selection group DAP + TMP/SMX): 2 µg/mL
- MIC (S. aureus MW2 (NRS123); NRS123, passage 20, selection group DAP + TR-700): 2 µg/mL
- MIC (S. aureus MW2 (NRS123); NRS123, passage 20, selection group DAP + TR-705): 2 µg/mL
- MIC (S. aureus MW2 (NRS123); NRS123, passage 20, selection group DAP + VAN): 1 µg/mL
- MIC (S. aureus MW2 (NRS123); NRS123, passage 25, selection group DAP): 1 µg/mL (≈ 2.96 µM)
- MIC (S. aureus MW2 (NRS123); NRS123, passage 25, selection group DAP + CLI): 2 µg/mL
- MIC (S. aureus MW2 (NRS123); NRS123, passage 25, selection group DAP + LZD): 1 µg/mL
- MIC (S. aureus MW2 (NRS123); NRS123, passage 25, selection group DAP + TET): 1 µg/mL
- MIC (S. aureus MW2 (NRS123); NRS123, passage 25, selection group DAP + TIA): 2 µg/mL
- MIC (S. aureus MW2 (NRS123); NRS123, passage 25, selection group DAP + TMP/SMX): 2 µg/mL
- MIC (S. aureus MW2 (NRS123); NRS123, passage 25, selection group DAP + TR-700): 2 µg/mL
- MIC (S. aureus MW2 (NRS123); NRS123, passage 25, selection group DAP + TR-705): 2 µg/mL
- MIC (S. aureus MW2 (NRS123); NRS123, passage 25, selection group DAP + VAN): 1 µg/mL
- MIC (S. aureus MW2 (NRS123); NRS123, passage 30, selection group DAP): 1 µg/mL (≈ 2.96 µM)
- MIC (S. aureus MW2 (NRS123); NRS123, passage 30, selection group DAP + CLI): 2 µg/mL
- MIC (S. aureus MW2 (NRS123); NRS123, passage 30, selection group DAP + LZD): 2 µg/mL
- MIC (S. aureus MW2 (NRS123); NRS123, passage 30, selection group DAP + TET): 1 µg/mL
- MIC (S. aureus MW2 (NRS123); NRS123, passage 30, selection group DAP + TIA): 2 µg/mL
- MIC (S. aureus MW2 (NRS123); NRS123, passage 30, selection group DAP + TMP/SMX): 2 µg/mL
- MIC (S. aureus MW2 (NRS123); NRS123, passage 30, selection group DAP + TR-700): 2 µg/mL
- MIC (S. aureus MW2 (NRS123); NRS123, passage 30, selection group DAP + TR-705): 2 µg/mL
- MIC (S. aureus MW2 (NRS123); NRS123, passage 30, selection group DAP + VAN): 2 µg/mL
- MIC (S. aureus MW2 (NRS123); NRS123, read-out: DAP MIC by the end of the experiment (selection of DAP^ns strains), MW2, passaged with DAP alone or with co-selecting agent at ¼ MIC, CLSI breakpoint): > 1 µg/mL
- effect on preventing the emergence of DAP^ns (S. aureus MW2 (NRS123); co-selection at ¼ MIC, VAN: both backgrounds): did not prevent the emergence of DAP non-susceptibility; also recorded: no effect on preventing DAP^ns
- susceptibility to the co-selecting agent in its co-selection group (S. aureus MW2 (NRS123); over the course of 30 passages): no increases in LZD MIC values over WT were observed
- S. aureus mutation frequency higher than for TR-700 (S. aureus [3]): > 10 fold
